Assay [1] concerns MRSA. In words: MIC of ceftazidime or cefuroxime for MRSA grown with or without GBE (Table 2). The class given is cell-based, Staphylococcus aureus. Particulars: Control; for MIC: Staphylococcus aureus. From the text:
Importantly, the usefulness of the agents of the present invention is not limited to increasing bacterial sensitivity to methicillin.

For assay [2], the system named is MRSA. In words: Antimicrobial plus BTA against recent clinical MRSA isolates (Table 7). In kind it is cell-based, Staphylococcus aureus. The text has this: The four clinical isolates were isolated from patients during the first three months of 2003. […] An intermediate MRSA has been included, as methicillin-resistance has been achieved by means other than production of PBP2a.

The subject of assay [3] is VRE. In words: Antimicrobial plus BTA against VRE (Table 7). The class given is cell-based, enterococci. As to conditions: +BTA 0.1%.
Assay [4] relates to MRSA with intermediate resistance to glycopeptides. In words: MIC of vancomycin or teicoplanin for MRSA with intermediate resistance to glycopeptides grown with GBE or NAGly (Table 4). The class given is cell-based, Staphylococcus aureus. As to conditions: NAGly 0.001M; for MIC: Staphylococcus aureus, read-out: MIC of teicoplanin.
Assay [5] concerns MRSA. In words: MIC of methicillin for MRSA isolates grown with glycine or GBE (Table 1). As to conditions: 0.0 (Control); for MIC: Staphylococcus aureus. In kind it is cell-based, Staphylococcus aureus.
Assay [6] has as its system S. aureus. In words: MIC of methicillin for already sensitive S. aureus with GBE, with or without 1% human plasma (Table 6). In kind it is cell-based, Staphylococcus aureus. As to conditions: Staphylococcus aureus, no plasma (Control 1). From the text:
As previously mentioned, a common cause of auto-infection is due to S. aureus carried on the anterior nares. […] The transforming agents of the present invention may also be used in combination with a suitable antimicrobial to eliminate nasal carriage of MSSA prior to cardiac surgery or other invasive procedures carrying a high risk of auto-infection.

Like-named read-outs stand apart in the source and are kept apart here. Bounds are passed on as bounds.

On to `CC(C)(O/N=C(\C(=O)N[C@@H]1C(=O)N2C(C(=O)[O-])=C(C[n+]3ccccc3)CS[C@H]12)c1csc(N)n1)C(=O)O` [Ceftazidime, ceftazidime], for which the MIC of ceftazidime in assay [1] (CD40 (EMRSA-1)), in assay [1] (E15-97 (EMRSA-15)), in assay [1] (E16-96 (EMRSA-16)), in assay [1] (JF1-32 (EMRSA-1)), in assay [1] (MC01 (EMRSA-1)) and in assay [1] (PS3-32 (EMRSA-1)) was more than 256 µg/mL each time. In addition, the MIC of ceftazidime in assay [1] (SN31 (EMRSA-1)), in assay [1] (ST11 (EMRSA-1)) and in assay [1] (SW2-32 (EMRSA-1)) was more than 256 µg/mL throughout. Also, the minimal inhibitory concentration (MIC) was more than 256 µg/mL in assay [1] (MRSA / NCTC 12493, NCTC 12493, read-out: MIC of ceftazidime) and more than 256 µg/mL in assay [1] (MRSA, DS09 (EMRSA-1), read-out: MIC of ceftazidime).
As for `CO/N=C(\C(=O)N[C@@H]1C(=O)N2C(C(=O)O)=C(COC(N)=O)CS[C@H]12)c1ccco1` [Cefuroxime, cefuroxime], the MIC of cefuroxime in assay [1] (CD40 (EMRSA-1)), in assay [1] (E15-97 (EMRSA-15)), in assay [1] (E16-96 (EMRSA-16)), in assay [1] (JF1-32 (EMRSA-1)), in assay [1] (MC01 (EMRSA-1)) and in assay [1] (PS3-32 (EMRSA-1)) was more than 256 µg/mL throughout. Besides, the MIC of cefuroxime in assay [1] (SN31 (EMRSA-1)), in assay [1] (ST11 (EMRSA-1)) and in assay [1] (SW2-32 (EMRSA-1)) was more than 256 µg/mL in each case. Also, the MIC is more than 256 µg/mL in assay [1] (MRSA / NCTC 12493, NCTC 12493, read-out: MIC of cefuroxime) and more than 256 µg/mL in assay [1] (MRSA, DS09 (EMRSA-1), read-out: MIC of cefuroxime).
In the case of `CC1=C(C(=O)O)N2C(=O)[C@@H](NC(=O)[C@H](N)c3ccccc3)[C@H]2SC1` [Cephalexin, cephalexin], the Cephalexin (antimicrobial plus BTA; quantity not named, MIC implied) in assay [2] (I-MRSA, cephalexin alone) was 32 µg/mL.
Consider `O=C(O)CNC(=O)c1ccccc1` [HA, Hippuric acid (N-Benzoylglycine)], for which the Oxacillin (antimicrobial plus BTA; quantity not named, MIC implied) in assay [2] (EMRSA-16, +BTA 0.01%) was determined as 6 µg/mL; in assay [2] (EMRSA-16, +BTA 0.1%), 4 µg/mL; in assay [2] (EMRSA-17, +BTA 0.01%), 8 µg/mL; in assay [2] (EMRSA-17, +BTA 0.1%), 4 µg/mL; in assay [2] (I-MRSA, +BTA 0.01%), 4 µg/mL; in assay [2] (I-MRSA, +BTA 0.1%), 2 µg/mL. The Cephalexin (antimicrobial plus BTA; quantity not named, MIC implied) in assay [2] (EMRSA-16, +BTA 0.1%) stood at 6 µg/mL; in assay [2] (EMRSA-17, +BTA 0.1%), 8 µg/mL; in assay [2] (I-MRSA, +BTA 0.1%), 2 µg/mL. The Vancomycin (antimicrobial plus BTA; quantity not named, MIC implied) in assay [2] (EMRSA-16, +BTA 0.1%) is 0.25 µg/mL; in assay [2] (EMRSA-17, +BTA 0.1%), 0.25 µg/mL; in assay [2] (I-MRSA, +BTA 0.1%), less than 0.25 µg/mL; in assay [3] it was 64 µg/mL.
Regarding `CC(=O)NCC(=O)O` [NAGly, N-acetylglycine], the MIC of vancomycin came out at 4 µg/mL in assay [4] (L266 (first line), EMRSA-17 (VISA)); 2 µg/mL in assay [4] (L266 (second line), EMRSA-17 (VISA)); 0.25 µg/mL in assay [4] (NCTC 12493). Further, the MIC of teicoplanin in assay [4] (L266, EMRSA-16 (TISA)) stood at 4 µg/mL. Also, the MIC was determined as 0.15 µg/mL in assay [4] (MRSA / NCTC 12493, NCTC 12493) and 4 µg/mL in assay [4] (MRSA, L265, EMRSA-16 (TISA)).
As to `Cc1onc(-c2ccccc2)c1C(=O)N[C@@H]1C(=O)N2[C@@H]1SC(C)(C)[C@@H]2C(=O)O` [Oxacillin, oxacillin], the Oxacillin (antimicrobial plus BTA; quantity not named, MIC implied) in assay [2] (EMRSA-16, oxacillin alone) was 256 µg/mL; in assay [2] (EMRSA-17, oxacillin alone), 256 µg/mL; in assay [2] (I-MRSA, oxacillin alone), 32 µg/mL.
Consider `COc1cccc(OC)c1C(=O)N[C@@H]1C(=O)N2[C@@H]1SC(C)(C)[C@@H]2C(=O)O` [methicillin], for which the MIC of methicillin in assay [5] (CD40 (EMRSA-1)), in assay [5] (DS09 (EMRSA-1)), in assay [5] (E15-97 (EMRSA-15)), in assay [5] (E16-96 (EMRSA-16)), in assay [5] (JF1-32 (EMRSA-1)) and in assay [5] (L265) was more than 256 µg/mL each time. Further, the MIC of methicillin in assay [5] (L267), in assay [5] (L268), in assay [5] (L269), in assay [5] (L270), in assay [5] (L271) and in assay [5] (L272) was more than 256 µg/mL throughout. Moreover, the MIC of methicillin in assay [5] (L273), in assay [5] (L274), in assay [5] (L275), in assay [5] (L276), in assay [5] (L277) and in assay [5] (L278) was more than 256 µg/mL in each case. The MIC of methicillin in assay [5] (L279), in assay [5] (L280), in assay [5] (L281), in assay [5] (L282), in assay [5] (L283) and in assay [5] (L284) was more than 256 µg/mL in each case. In addition, the MIC of methicillin in assay [5] (L285), in assay [5] (L286), in assay [5] (L287), in assay [5] (L288), in assay [5] (L289) and in assay [5] (L290) was more than 256 µg/mL throughout. Also, the MIC of methicillin in assay [5] (L291), in assay [5] (L292), in assay [5] (L293), in assay [5] (L294), in assay [5] (MC01 (EMRSA-1)) and in assay [5] (PS3-32 (EMRSA-1)) was more than 256 µg/mL each time. Also, the MIC of methicillin in assay [5] (SN31 (EMRSA-1)), in assay [5] (ST11 (EMRSA-1)) and in assay [5] (SW2-32 (EMRSA-1)) was more than 256 µg/mL throughout. Besides, the minimum inhibitory concentration (MIC) is more than 256 µg/mL in assay [5] (MRSA / NCTC 12493, NCTC 12493); more than 256 µg/mL in assay [5] (MRSA, L266); more than 256 µg/mL in assay [6] (5518 (EMRSA-1)); less than 0.25 µg/mL in assay [6] (LHS77); 0.25 µg/mL in assay [6] (LHS78); 0.5 µg/mL in assay [6] (LHS79). The MIC in assay [6] (LHS80) is 0.25 µg/mL; in assay [6] (LHS81) it was less than 0.25 µg/mL; in assay [6] (LHS82), 0.5 µg/mL; in assay [6] (LHS83) it was 0.25 µg/mL; in assay [6] (LHS84) it was 0.25 µg/mL; in assay [6] (LHS85), 0.25 µg/mL. Also, the minimum inhibitory concentration (MIC) in assay [6] (LHS86) was 0.25 µg/mL; in assay [6] (LHS87) it was 0.5 µg/mL; in assay [6] (LHS88), 0.25 µg/mL; in assay [6] (LHS89), 0.25 µg/mL; in assay [6] (LHS90), less than 0.25 µg/mL; in assay [6] (LHS91) it was less than 0.25 µg/mL. The minimum inhibitory concentration (MIC) was 0.5 µg/mL in assay [6] (LHS92), 0.25 µg/mL in assay [6] (LHS93) and 0.25 µg/mL in assay [6] (LHS94).
